Series [1] can be described thus: Metabolic stability, mouse liver microsomes. Particulars: CD-1 mouse liver microsomes 1 mg/ml, 1 mM NADPH, pH 7.4, 37° C. It counts as in vitro ADME. How it is done: (§1) Test compounds were incubated with mouse liver microsomes (CD-1; male and female pooled; 1 mg/ml) or human liver microsomes (male; 1 mg/ml) in 50 mM potassium phosphate, pH 7.4, and 1 mM NADPH at 37° C. Aliquots were removed at 0, 15, 30, 60, 90 and 120 min, and amounts of test compounds remaining were determined by LC-MS/MS. Half lives (t0.5) were calculated as t0.5=−0.693/k, where k is the slope of the linear regression of the natural logarithms of percentages of test compounds remaining vs. time.
(In general: Liver microsomes are vesicles of endoplasmic reticulum, rich in cytochrome P450 enzymes.)

Series [2] is described as follows: Metabolic stability, human liver microsomes. The settings on record: human liver microsomes (male) 1 mg/ml, 1 mM NADPH, pH 7.4, 37° C. The format is in vitro ADME. Here is the method: as §1
Series [3] in a line: In vivo pharmacokinetics in mice (intravenous administration). Particulars: CD-1 mice, 2.5 mg/kg. Here is the method:
Test compounds (2.5 mg/kg; 0.1 ml of 0.625 mg/ml solution in 5% dimethylacetamide and 4% Cremophor EL in 100 mM sodium phosphate, pH 7.4) were administered to mice (CD-1; […]; n=3) by intravenous injection into a tail vein at t=0 h. Blood samples were collected by tail-vein bleed (CB 300 K2E tubes; Sarstedt) at t=0.02, 0.05, 1, 3, 5, and 8 h, and plasma concentrations of test compounds were determined by LC-MS/MS.

Series [4] has as its target E. coli RNA polymerase σ70 holoenzyme (Escherichia coli, UniProt P0A8T7+P0A8V2). Kind of series: Fluorescence-detected inhibition of bacterial RNA polymerase. Particulars: 75 nM E. coli RNAP holoenzyme, RiboGreen fluorescence; read-out: in vitro RNAP-inhibitory activity E. coli RNAP IC50. The format is biochemical. How it is done:
Fluorescence-detected RNA polymerase assays with E. coli RNA polymerase were performed by a modification of the procedure of Kuhlman et al., 2004 [Kuhlman, P., Duff, H. & Galant, A. (2004) A fluorescence-based assay for multisubunit DNA-dependent RNA polymerases. Anal. Biochem. 324, 183-190]. Reaction mixtures contained (20 μl): 0-100 nM test compound, 75 nM E. coli RNA polymerase σ^70holoenzyme, 20 nM 384 bp DNA fragment containing the bacteriophage T4 N25 promoter, 100 μM ATP, 100 μM GTP, 100 μM UTP, 100 μM CTP, 50 mM Tris-HCl, pH 8.0, 100 mM KCl, 10 mM MgCl2, 1 mM DTT, 10 μg/ml bovine serum albumin, and 5.5% glycerol. Reaction components other than DNA and NTPs were pre-incubated for 10 min at 37° C. Reactions were carried out by addition of DNA and incubation for 5 min at 37° C., followed by addition of NTPs and incubation for 60 min at 37° C. DNA was removed by addition of 1 μl 5 mM CaCl2 and 2 U DNaseI (Ambion, Inc.), followed by incubation for 90 min at 37° C. RNA was quantified by addition of 100 μl RiboGreen RNA Quantitation Reagent (Invitrogen, Inc.; 1:500 dilution in Tris-HCl, pH 8.0, 1 mM EDTA), followed by incubation for 10 min at 25° C., followed by measurement of fluorescence intensity [excitation wavelength=485 nm and emission wavelength=535 nm; QuantaMaster QM1 spectrofluorometer (PTI, Inc.)]. IC50 is defined as the concentration of inhibitor resulting in 50% inhibition of RNA polymerase activity.

Series [5] deals with Mycobacterium tuberculosis H37Rv. Kind of series: Inhibition of growth of Mycobacterium tuberculosis (microplate Alamar Blue assay). It counts as cell-based. Particulars: read-out: in vitro antibacterial activity M. tuberculosis H37Rv MIC.
The subject of series [6] is Staphylococcus aureus ATCC 12600. Kind of series: Inhibition of growth of Staphylococcus aureus (spiral gradient endpoint assay). It counts as cell-based. The settings on record: ATCC12600, spiral gradient endpoint assay, 16 h at 37° C., read-out: in vitro antibacterial activity S. aureus ATCC 12600 MIC. The text has this:
Minimum inhibitory concentrations (MICs) for Staphylococcus aureus ATCC 12600 were quantified using spiral gradient endpoint assays, essentially as described [Wallace, A. and Corkill, J. (1989) Application of the spiral plating method to study antimicrobial action. J. Microbiol. Meths. 10, 303-310; Paton, J., Holt, A., and Bywater, M. (1990) Measurement of MICs of antibacterial agents by spiral gradient endpoint compared with conventional dilution methods. Int. J. Exp. Clin. Chemother. 3, 31-38; Schalkowsky S. (1994) Measures of susceptibility from a spiral gradient of drug concentrations. Adv. Exp. Med. Biol. 349, 107-120]. Assays employed exponential-gradient plates containing 150 mm×4 mm Mueller-Hinton II cation-adjusted agar and 0.4-100 μg/ml of test compound. Plates were prepared using an Autoplate 4000 spiral plater (Spiral Biotech, Inc.). Saturated overnight cultures were swabbed radially onto plates, and plates were incubated for 16 h at 37° C. For each culture, the streak length was measured using a clear plastic template (Spiral Biotech, Inc.), the test-compound concentration at the streak endpoint was calculated using the program SGE (Spiral Biotech, Inc.), and the MIC was defined as the calculated test-compound concentration at the streak endpoint.

Each structure is given as a SMILES string. Converted amounts (≈) assume the structure as drawn.

One may read the IC50 as the concentration needed to halve the response being measured. Broadly, the MIC is the lowest concentration found to suppress growth.

Chain of E. coli RNA polymerase σ70 holoenzyme (P0A8V2 whole entry, the tested form may be a part): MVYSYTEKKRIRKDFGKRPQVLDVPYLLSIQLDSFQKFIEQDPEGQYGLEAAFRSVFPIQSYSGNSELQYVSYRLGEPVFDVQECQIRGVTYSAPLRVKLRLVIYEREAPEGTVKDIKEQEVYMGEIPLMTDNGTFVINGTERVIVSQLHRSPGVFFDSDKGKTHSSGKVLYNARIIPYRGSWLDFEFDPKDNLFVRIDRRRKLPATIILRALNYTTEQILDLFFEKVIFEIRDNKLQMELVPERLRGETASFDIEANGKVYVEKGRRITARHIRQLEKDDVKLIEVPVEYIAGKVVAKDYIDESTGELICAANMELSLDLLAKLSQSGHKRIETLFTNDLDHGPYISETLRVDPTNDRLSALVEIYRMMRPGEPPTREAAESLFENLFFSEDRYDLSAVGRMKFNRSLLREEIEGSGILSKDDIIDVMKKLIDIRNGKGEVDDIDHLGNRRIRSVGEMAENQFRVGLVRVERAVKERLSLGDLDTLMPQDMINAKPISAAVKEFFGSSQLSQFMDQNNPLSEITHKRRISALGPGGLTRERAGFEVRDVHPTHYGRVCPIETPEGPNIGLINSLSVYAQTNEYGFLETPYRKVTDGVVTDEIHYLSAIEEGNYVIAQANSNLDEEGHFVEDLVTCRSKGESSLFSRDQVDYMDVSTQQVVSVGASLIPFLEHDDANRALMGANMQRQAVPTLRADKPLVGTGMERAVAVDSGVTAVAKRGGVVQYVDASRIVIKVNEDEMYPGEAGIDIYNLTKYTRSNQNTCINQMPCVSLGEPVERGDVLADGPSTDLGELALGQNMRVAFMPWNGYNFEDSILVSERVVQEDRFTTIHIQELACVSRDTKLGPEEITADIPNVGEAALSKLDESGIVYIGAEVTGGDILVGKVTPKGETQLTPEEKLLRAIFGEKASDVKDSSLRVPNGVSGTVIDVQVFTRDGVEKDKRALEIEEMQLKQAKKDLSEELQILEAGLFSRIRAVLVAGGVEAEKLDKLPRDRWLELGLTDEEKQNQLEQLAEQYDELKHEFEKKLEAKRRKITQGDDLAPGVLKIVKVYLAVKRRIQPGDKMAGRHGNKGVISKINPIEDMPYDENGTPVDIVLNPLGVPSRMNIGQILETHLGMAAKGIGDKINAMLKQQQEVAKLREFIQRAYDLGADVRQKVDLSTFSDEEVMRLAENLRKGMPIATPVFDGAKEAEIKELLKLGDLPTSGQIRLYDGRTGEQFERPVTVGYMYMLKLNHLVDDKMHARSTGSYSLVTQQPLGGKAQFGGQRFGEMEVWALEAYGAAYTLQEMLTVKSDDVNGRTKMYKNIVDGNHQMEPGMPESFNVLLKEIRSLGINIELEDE
Chain of E. coli RNA polymerase σ70 holoenzyme (P0A8T7 whole entry, the tested form may be a part): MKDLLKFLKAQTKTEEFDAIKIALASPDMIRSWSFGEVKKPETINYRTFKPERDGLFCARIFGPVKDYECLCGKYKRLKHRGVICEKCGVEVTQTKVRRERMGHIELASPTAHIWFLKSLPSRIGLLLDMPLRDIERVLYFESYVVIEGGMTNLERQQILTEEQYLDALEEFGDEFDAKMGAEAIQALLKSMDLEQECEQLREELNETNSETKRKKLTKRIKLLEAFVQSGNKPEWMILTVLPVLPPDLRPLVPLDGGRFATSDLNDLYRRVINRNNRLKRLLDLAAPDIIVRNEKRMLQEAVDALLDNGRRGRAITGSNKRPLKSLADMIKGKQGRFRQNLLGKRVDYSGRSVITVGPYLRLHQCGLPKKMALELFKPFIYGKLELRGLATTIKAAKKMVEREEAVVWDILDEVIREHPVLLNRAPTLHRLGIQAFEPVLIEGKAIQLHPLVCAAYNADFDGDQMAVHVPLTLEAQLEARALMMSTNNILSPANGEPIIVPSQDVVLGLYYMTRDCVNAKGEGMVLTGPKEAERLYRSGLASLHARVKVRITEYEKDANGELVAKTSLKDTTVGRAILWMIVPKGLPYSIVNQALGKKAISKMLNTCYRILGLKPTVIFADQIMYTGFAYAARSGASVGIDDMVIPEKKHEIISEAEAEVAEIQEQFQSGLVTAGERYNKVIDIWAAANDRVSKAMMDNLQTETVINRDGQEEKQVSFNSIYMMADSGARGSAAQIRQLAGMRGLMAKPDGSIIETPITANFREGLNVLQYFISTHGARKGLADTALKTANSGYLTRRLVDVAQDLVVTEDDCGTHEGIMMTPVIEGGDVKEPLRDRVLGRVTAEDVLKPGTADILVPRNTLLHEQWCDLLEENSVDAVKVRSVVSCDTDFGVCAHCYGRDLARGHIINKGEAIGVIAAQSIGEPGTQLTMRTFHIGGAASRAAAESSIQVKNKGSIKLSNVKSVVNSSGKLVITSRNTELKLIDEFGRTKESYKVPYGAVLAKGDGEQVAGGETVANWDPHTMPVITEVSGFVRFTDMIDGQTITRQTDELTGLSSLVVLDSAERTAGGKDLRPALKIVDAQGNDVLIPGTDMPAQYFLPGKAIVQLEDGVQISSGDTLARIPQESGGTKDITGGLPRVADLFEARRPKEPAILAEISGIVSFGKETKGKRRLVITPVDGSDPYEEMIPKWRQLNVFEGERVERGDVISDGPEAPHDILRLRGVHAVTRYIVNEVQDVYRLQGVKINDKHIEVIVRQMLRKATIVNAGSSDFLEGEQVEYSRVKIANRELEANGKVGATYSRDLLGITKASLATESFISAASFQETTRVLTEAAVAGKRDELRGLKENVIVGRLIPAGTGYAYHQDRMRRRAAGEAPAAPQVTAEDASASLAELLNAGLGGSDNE
Chain of E. coli RNA polymerase σ70 holoenzyme (P0A7Z4 whole entry partner, the tested form may be a part): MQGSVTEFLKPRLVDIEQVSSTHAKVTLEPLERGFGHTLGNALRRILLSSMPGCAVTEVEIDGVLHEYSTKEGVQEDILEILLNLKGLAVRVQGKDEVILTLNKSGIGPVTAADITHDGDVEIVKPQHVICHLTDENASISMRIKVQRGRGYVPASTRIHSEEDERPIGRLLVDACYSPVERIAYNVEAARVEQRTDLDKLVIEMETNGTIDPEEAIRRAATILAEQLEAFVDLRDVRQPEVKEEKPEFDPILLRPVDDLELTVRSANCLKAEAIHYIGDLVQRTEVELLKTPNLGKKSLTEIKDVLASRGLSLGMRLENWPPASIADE
Chain of E. coli RNA polymerase σ70 holoenzyme (P0A800 2-91 partner limits assumed): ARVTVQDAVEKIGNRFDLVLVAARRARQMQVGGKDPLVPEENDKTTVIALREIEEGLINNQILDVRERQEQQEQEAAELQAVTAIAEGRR
Chain of E. coli RNA polymerase σ70 holoenzyme (P00579 whole entry partner, the tested form may be a part): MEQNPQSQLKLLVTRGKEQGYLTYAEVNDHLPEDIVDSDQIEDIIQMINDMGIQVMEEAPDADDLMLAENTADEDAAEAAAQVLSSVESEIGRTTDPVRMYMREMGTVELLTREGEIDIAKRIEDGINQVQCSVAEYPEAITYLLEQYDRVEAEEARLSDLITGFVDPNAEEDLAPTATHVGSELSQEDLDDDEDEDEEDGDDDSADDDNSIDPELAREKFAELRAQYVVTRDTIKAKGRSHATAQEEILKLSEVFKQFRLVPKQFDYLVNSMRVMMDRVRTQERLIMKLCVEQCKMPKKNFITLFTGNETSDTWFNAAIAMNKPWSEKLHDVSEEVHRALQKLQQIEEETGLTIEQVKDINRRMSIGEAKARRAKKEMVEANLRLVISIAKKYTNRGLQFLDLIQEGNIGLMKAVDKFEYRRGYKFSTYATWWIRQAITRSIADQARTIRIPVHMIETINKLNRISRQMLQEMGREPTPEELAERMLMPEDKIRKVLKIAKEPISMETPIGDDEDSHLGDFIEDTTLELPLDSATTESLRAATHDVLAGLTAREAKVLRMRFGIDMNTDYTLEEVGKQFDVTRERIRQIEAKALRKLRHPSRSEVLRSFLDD

As for `[2H]C([2H])([2H])OC(=O)N/C=C/CCCc1cc(O)c(C(=O)/C(C)=C/c2cnc(Oc3ccc(F)c(Cl)c3)s2)c(=O)o1` [Example 14], the “mouse liver microsome t0.5” value in series [1] turned out to be 65 min. The “human liver microsome t0.5” value in series [2] is on record as 21 min. In addition, the “plasma t0.5” value in series [3] stood at 1.8 h. The IC50 in series [4] stood at 2.9 nM. Moreover, the MIC in series [5] is 0.78 µg/mL (≈ 1.41 µM); in series [6], 0.19 µg/mL (≈ 0.344 µM).

These data come from patent US11685723B2, “Antibacterial agents: O-alkyl-deuterated pyronins” (Rutgers, the State University of New Jersey, priority 2018, dated 2023).
